According to patent publication US20210253635A1, “PEPTIDIC PROTEIN KINASE C INHIBITORS AND USES THEREOF” (UNIVERSITE DE GENEVE, priority 2018, published 2021):
Ends that are not written are not given here. * marks the point of attachment. Myristoyl = CCCCCCCCCCCCCC(=O)*

Assays:
[1] = tested on: nasal epithelial monolayers (Mucilair human primary nasal epithelial cells); assay: FITC insulin permeabilization (apical to basolateral) across epithelial monolayer; assay type: cell-based; settings: peptide 50 μM, apical side, compared to control (vehicle), FIG. 2
Description: To assess the potential effects of peptides of the invention on the permeabilization of therapeutic molecules, FITC Insulin (Sigma-Aldrich, Buchs SG, Switzerland) is used as a model for assessing paracellular drug transport (apical to basolateral) across the epithelial monolayer.
Mucilair™ human primary nasal and bronchial epithelial cells (Epithelix sarl, Geneva, Switzerland) and Caco-2 human intestinal epithelial cells are used (Huang et. al., 2013, Toxicol. in Vitro 27: 1151-1156).
Before each experiment, the culture medium is removed from each compartment and the monolayer is washed once with 200 μl of saline (0.9%) and once with warm Hanks' Balanced Salt Solution (HBSS) (37° C.). In the basolateral compartment, 600 μL of pre-warmed HBSS is placed and the cells are returned to the incubator at 37° C. for 30 minutes to equilibrate. After equilibration, the peptides of the invention and the paracellular marker (FITC insulin) are applied to the apical side of an epithelial monolayer. Peptides P4 (SEQ ID NO: 2) and P3 (SEQ ID NO: 4) according to the invention are tested in comparison with a comparative peptide CP4 (SEQ ID NO: 3).
All peptides are used at a final concentration of 50 μM. The vehicle is used as a control (CTRL). The FD solution is added to the apical compartment to make a final volume of 200 μl. […] The fluorescence of FD is measured in black 96-well plates using a fluorescence plate reader (BioTek Synergy Mx plate reader, BioTek Instruments GmbH, Lucerne, Switzerland), using excitation and emission wavelengths of 485 and 520 nm, respectively. Cumulative release (ng) corresponds to the actual amount of drug released cumulatively and corresponds to the amount in the suspension medium at any time plus the amount of the drug lost during each sampling.

[2] = tested on: non-small cell lung cancer (NSCLC); settings: NSCLC patients, compared to chemotherapies, before resistance appears; cited from earlier work
[3] = tested on: Mucilair human primary nasal epithelial cells; assay: Trans-epithelial electrical resistance (TEER), epithelial integrity; assay type: cell-based; settings: peptide 100 μM, apical, FIG. 1
Method: Trans-epithelial electrical resistance (TEER): After addition of 200 μl of culture medium to the apical compartment of the tissue cultures, resistance is measured across cultures with an EVOMX volt-ohm-meter (World Precision Instruments UK, Stevenage) in triplicate for each time point. The TEER values (Ω) is converted normalized by using the following formula: TEER (Ω cm^2)=(resistance value (Ω)−100 (Ω))×0.33 (cm^2), where 100Ω is the resistance of the membrane and 0.33 cm^2 is the total surface of the epithelium.
To assess the potential effects of peptides of the invention on the epithelial integrity, transepithelial electrical resistance in the presence of a peptide of the invention is measured. Trans-epithelial electrical resistance (TEER) was measured as in Example 2 except that volt-ohm-meter was equipped with STX-2 chopstick electrodes (WPI, Sarasota, Fla., USA). Mucilair™ human primary nasal epithelial cells were used as in Example 2 (from single donor; EP01-Batch number MD069201). The peptide P4 (SEQ ID NO: 2) and comparative peptide […] both at a concentration of 100 μM in Mucilair™ medium and control solution (i.e., 50 μl of saline+50 μl of Mucilair™ medium) were administered to the apical compartment of the tissue cultures at the begging of the experiment (t=0) and the measurements were made after 20, 40, 60 and 80 minutes (t=20 min, t=40 min, t=60 min and t=80 min) of the incubation. All TEER values are expressed as percentage relative to control (the baseline value was 242 Ω*cm^2). All the experiments were performed at least 2 times (test 1 and 2).

Myr-AKRWR (Myristoyl-AKRWR) [CP4, comparative peptide, L-amino acid version of P4, reference compound]
permeabilization of FITC-conjugated insulin (cumulative release) [1]: slightly increased the permeabilization

COc1cc2ncnc(Nc3ccc(F)c(Cl)c3)c2cc1OCCCN1CCOCC1 [Gefitinib, N-(3-Chloro-4-fluorophenyl)-7-methoxy-6-(3-morpholinopropoxy) quinazolin-4-amine]
progression free survival (PFS) [2]: 7.7-12.9 months

Myr-D-Ala D-Arg D-Arg D-Trp D-Arg [Peptide P3]
permeabilization of FITC-conjugated insulin (cumulative release) [1]: increased the permeabilization of insulin FITC to a much larger extend than the control peptide CP4

Myr-D-Ala D-Lys D-Arg D-Trp D-Arg [Peptide P4]
permeabilization of FITC-conjugated insulin (cumulative release) [1]: increased the permeabilization of insulin FITC to a much larger extend than the control peptide CP4
TEER values (percentage relative to control) ([3]; t=20 min): decreased TEER values as compared to control solution and comparative peptide P4 (CP4)
TEER values (percentage relative to control) ([3]; t=40 min and t=60 min): this effect persisted
TEER values (percentage relative to control) ([3]; t=80 min): TEER values increased as compared to values measured at previous time points
